Assay results: patent US10221161B2, “Inhibitors of plasma kallikrein” (Kalvista Pharmaceuticals Limited, priority 2013, dated 2019)

Columns and labels:
Human KLK1 = Human KLK1 (Homo sapiens (Human), UniProt P06870); assay: Determination of the IC50 for KLK1 (fluorogenic substrate H-DVal-Leu-Arg-AFC); format: biochemical; settings: human KLK1, 37° C.
Protocol: Selected compounds were further screened for inhibitory activity against the related enzyme KLK1. The ability of the compounds of formula (I) to inhibit KLK1 may be determined using the following biological assay:
Determination of the IC50 for KLK1
KLK1 inhibitory activity in vitro was determined using standard published methods (see e.g. Johansen et al., Int. J. Tiss. Reac. 1986, 8, 185; Shori et al., Biochem. Pharmacol., 1992, 43, 1209; Stürzebecher et al., Biol. Chem. Hoppe-Seyler, 1992, 373, 1025). Human KLK1 (Callbiochem) was incubated at 37° C. with the fluorogenic substrate H-DVal-Leu-Arg-AFC and various concentrations of the test compound. Residual enzyme activity (initial rate of reaction) was determined by measuring the change in optical absorbance at 410 nm and the IC50 value for the test compound was determined.

Human plasma kallikrein = Human plasma kallikrein (Homo sapiens (Human), UniProt P03952); assay: Determination of the IC50 for plasma kallikrein (fluorogenic substrate H-DPro-Phe-Arg-AFC); format: biochemical; settings: 37° C., read-out: IC50 (human PKal)
Chain of Human plasma kallikrein (P03952 391-638 limits assumed): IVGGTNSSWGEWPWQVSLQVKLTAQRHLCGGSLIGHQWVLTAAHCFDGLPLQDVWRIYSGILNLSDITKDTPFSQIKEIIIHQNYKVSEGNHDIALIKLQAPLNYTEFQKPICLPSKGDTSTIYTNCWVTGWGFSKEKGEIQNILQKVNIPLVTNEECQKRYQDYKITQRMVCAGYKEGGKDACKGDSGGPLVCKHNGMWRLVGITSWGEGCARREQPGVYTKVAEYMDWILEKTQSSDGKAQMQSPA
Chain of Human plasma kallikrein (P03952 20-390 partner limits assumed): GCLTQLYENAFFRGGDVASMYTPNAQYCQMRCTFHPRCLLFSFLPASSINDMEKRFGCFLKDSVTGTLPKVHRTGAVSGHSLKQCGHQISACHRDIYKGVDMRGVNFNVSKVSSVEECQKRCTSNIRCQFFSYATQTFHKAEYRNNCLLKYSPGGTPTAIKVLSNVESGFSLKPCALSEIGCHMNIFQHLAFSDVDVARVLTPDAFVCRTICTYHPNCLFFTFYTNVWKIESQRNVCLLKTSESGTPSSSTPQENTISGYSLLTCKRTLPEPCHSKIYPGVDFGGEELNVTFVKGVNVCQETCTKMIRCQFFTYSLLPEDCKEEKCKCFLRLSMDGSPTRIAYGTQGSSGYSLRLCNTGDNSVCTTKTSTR
Protocol: Determination of the IC50 Plasma Kallikrein Plasma kallikrein inhibitory activity in vitro was determined using standard published methods (see e.g. Johansen et al., Int. J. Tiss. […] Shori et al., Biochem. Pharmacol., 1992, 43, 1209; Stürzebecher et al., Biol. Chem. Hoppe-Seyler, 1992, 373, 1025). Human plasma kallikrein (Protogen) was incubated at 37° C. with the fluorogenic substrate […] and various concentrations of the test compound.

Chain of Human KLK1 (P06870 25-262): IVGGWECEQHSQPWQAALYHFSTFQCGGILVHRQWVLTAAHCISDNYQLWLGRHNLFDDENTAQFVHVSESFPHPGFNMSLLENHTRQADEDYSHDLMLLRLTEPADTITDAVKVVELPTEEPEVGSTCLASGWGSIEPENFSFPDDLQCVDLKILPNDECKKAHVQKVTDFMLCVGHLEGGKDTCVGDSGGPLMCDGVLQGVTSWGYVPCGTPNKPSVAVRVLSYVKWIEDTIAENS

Row | Structure (SMILES) | IC50 (Human KLK1) | IC50 (Human plasma kallikrein)
1 | Nc1nccc2cc(CNC(=O)c3cncc(Cc4ccc(N5CCC(O)C5)nc4)c3)ccc12 (stereo not shown) [Example 59, N-[(1-Aminoisoquinolin-6-yl)methyl]-5-{[6-(3-hydroxypyrrolidin-1-yl)pyridin-3-yl]methyl}pyridine-3-carboxamide] | 6.01 µM | 0.417 µM
2 | Nc1nccc2cc(CNC(=O)c3cncc(Cc4ccc(N5CCC(F)C5)nc4)c3)ccc12 (stereo not shown) [Example 60, N-[(1-Aminoisoquinolin-6-yl)methyl]-5-{[6-(3-fluoropyrrolidin-1-yl)pyridin-3-yl]methyl}pyridine-3-carboxamide] | 8.69 µM | 0.137 µM
3 | CC1CCN(c2ccc(Cc3cncc(C(=O)NCc4ccc5c(N)nccc5c4)c3)cn2)C1 (stereo not shown) [Example 61, N-[(1-Aminoisoquinolin-6-yl)methyl]-5-{[6-(3-methylpyrrolidin-1-yl)pyridin-3-yl]methyl}pyridine-3-carboxamide] | 6.55 µM | 0.137 µM
4 | COC1CCN(c2ccc(Cc3cncc(C(=O)NCc4ccc5c(N)nccc5c4)c3)cn2)C1 (stereo not shown) [Example 62, N-[(1-Aminoisoquinolin-6-yl)methyl]-5-{[6-(3-methoxypyrrolidin-1-yl)pyridin-3-yl]methyl}pyridine-3-carboxamide] | 8.89 µM | 0.255 µM
5 | Nc1nccc2cc(CNC(=O)c3cncc(Cc4ccc(N5CCOCC5)nc4)c3)ccc12 [Example 63, N-[(1-Aminoisoquinolin-6-yl)methyl]-5-{[6-(morpholin-4-yl)pyridin-3-yl]methyl}pyridine-3-carboxamide] | > 10 µM | 0.432 µM
6 | CN1CCN(c2ccc(Cc3cncc(C(=O)NCc4ccc5c(N)nccc5c4)c3)cn2)CC1 [Example 64, N-[(1-Aminoisoquinolin-6-yl)methyl]-5-{[6-(4-methylpiperazin-1-yl)pyridin-3-yl]methyl}pyridine-3-carboxamide] | 5.34 µM | 0.61 µM
7 | CC1(C)CCCN1c1ccc(Cc2cncc(C(=O)NCc3ccc4c(N)nccc4c3)c2)cn1 [Example 65, N-[(1-Aminoisoquinolin-6-yl)methyl]-5-{[6-(2,2-dimethylpyrrolidin-1-yl)pyridin-3-yl]methyl}pyridine-3-carboxamide] | > 10 µM | 0.131 µM
8 | CCN(CC)c1ccc(Cc2cncc(C(=O)NCc3ccc4c(N)nccc4c3)c2)cn1 [Example 66, N-[(1-Aminoisoquinolin-6-yl)methyl]-5-{[6-(diethylamino)pyridin-3-yl]methyl}pyridine-3-carboxamide] | 5.85 µM | 0.0527 µM
9 | Nc1nccc2cc(CNC(=O)c3cncc(Cc4ccc(N5CCCC5CO)nc4)c3)ccc12 (stereo not shown) [Example 67, N-[(1-Aminoisoquinolin-6-yl)methyl]-5-({6-[2-(hydroxymethyl)pyrrolidin-1-yl]pyridin-3-yl}methyl)pyridine-3-carboxamide] | 5.15 µM | 0.0733 µM
10 | CC(C)Oc1ccc(Cc2cncc(C(=O)NCc3ccc4c(N)nccc4c3)c2)cn1 [Example 70, N-[(1-Aminoisoquinolin-6-yl)methyl]-5-[(6-isopropoxypyridin-3-yl)methyl]pyridine-3-carboxamide] | > 10 µM | 1.74 µM
11 | Nc1nccc2cc(CNC(=O)c3cncc(Cc4ccc(N5CCC(CO)C5)nc4)c3)ccc12 (stereo not shown) [Example 71, N-[(1-Aminoisoquinolin-6-yl)methyl]-5-({6-[3-(hydroxymethyl)pyrrolidin-1-yl]pyridin-3-yl}methyl)pyridine-3-carboxamide] | 3.95 µM | 0.306 µM
12 | CCOC(=O)C1CCN(c2ccc(Cc3cncc(C(=O)NCc4ccc5c(N)nccc5c4)c3)cn2)C1 (stereo not shown) [Example 72, Ethyl 1-{5-[(5-{[(1-aminoisoquinolin-6-yl)methyl]carbamoyl}pyridin-3-yl)methyl]pyridin-2-yl}pyrrolidine-3-carboxylate] | 3.62 µM | 0.86 µM
13 | CC(C)N(C)c1ccc(Cc2cncc(C(=O)NCc3ccc4c(N)nccc4c3)c2)cn1 [Example 73, N-[(1-Aminoisoquinolin-6-yl)methyl]-5-({6-[isopropyl(methyl)amino]pyridin-3-yl}methyl)pyridine-3-carboxamide] | 6.69 µM | 0.0511 µM
14 | CC1(C)CCN(c2ccc(Cc3cncc(C(=O)NCc4ccc5c(N)nccc5c4)c3)cn2)C1 [Example 74, N-[(1-Aminoisoquinolin-6-yl)methyl]-5-{[6-(3,3-dimethylpyrrolidin-1-yl)pyridin-3-yl]methyl}pyridine-3-carboxamide] | > 10 µM | 0.0831 µM
15 | Nc1nccc2cc(CNC(=O)c3cncc(Cc4ccc(N5CCC(C(=O)O)C5)nc4)c3)ccc12 (stereo not shown) [Example 75, 1-{5-[(5-{[(1-Aminoisoquinolin-6-yl)methyl]carbamoyl}pyridin-3-yl)methyl]pyridin-2-yl}pyrrolidine-3-carboxylic acid] | > 10 µM | 6.12 µM
16 | Nc1nccc2cc(CNC(=O)c3cncc(Cc4ccnc(N5CCCC5=O)c4)c3)ccc12 [Example 76, N-[(1-Aminoisoquinolin-6-yl)methyl]-5-{[2-(2-oxopyrrolidin-1-yl)pyridin-4-yl]methyl}pyridine-3-carboxamide] | 3.75 µM | 0.242 µM
17 | Nc1nccc2cc(CNC(=O)c3cncc(Cc4ccnc(N5CCCC5)c4)c3)ccc12 [Example 77, N-[(1-Aminoisoquinolin-6-yl)methyl]-5-{[2-(pyrrolidin-1-yl)pyridin-4-yl]methyl}pyridine-3-carboxamide] | 4.8 µM | 0.0377 µM
18 | Nc1nccc2cc(CNC(=O)c3cncc(Cc4ccnc(N5CCCCC5)c4)c3)ccc12 [Example 78, N-[(1-Aminoisoquinolin-6-yl)methyl]-5-{[2-(piperidin-1-yl)pyridin-4-yl]methyl}pyridine-3-carboxamide] | 6.93 µM | 0.164 µM
19 | CC1CCCN1c1cc(Cc2cncc(C(=O)NCc3ccc4c(N)nccc4c3)c2)ccn1 (stereo not shown) [Example 79, N-[(1-Aminoisoquinolin-6-yl)methyl]-5-{[2-(2-methylpyrrolidin-1-yl)pyridin-4-yl]methyl}pyridine-3-carboxamide] | 7.14 µM | 0.155 µM
20 | Nc1nccc2cc(CNC(=O)c3cncc(Cc4ccnc(N5CCC(F)(F)C5)c4)c3)ccc12 [Example 80, N-[(1-Aminoisoquinolin-6-yl)methyl]-5-{[2-(3,3-difluoropyrrolidin-1-yl)pyridin-4-yl]methyl}pyridine-3-carboxamide] | 7.55 µM | 0.0885 µM
21 | Nc1nccc2cc(CNC(=O)c3cncc(Cc4ccnc(N5CCC(O)C5)c4)c3)ccc12 (stereo not shown) [Example 81, N-[(1-Aminoisoquinolin-6-yl)methyl]-5-{[2-(3-hydroxypyrrolidin-1-yl)pyridin-4-yl]methyl}pyridine-3-carboxamide] | 9.57 µM | 0.674 µM
22 | Nc1nccc2cc(CNC(=O)c3cncc(Cc4ccnc(N5CCC(F)C5)c4)c3)ccc12 (stereo not shown) [Example 82, N-[(1-Aminoisoquinolin-6-yl)methyl]-5-{[2-(3-fluoropyrrolidin-1-yl)pyridin-4-yl]methyl}pyridine-3-carboxamide] | 4 µM | 0.0678 µM
23 | CC1CCN(c2cc(Cc3cncc(C(=O)NCc4ccc5c(N)nccc5c4)c3)ccn2)C1 (stereo not shown) [Example 83, N-[(1-Aminoisoquinolin-6-yl)methyl]-5-{[2-(3-methylpyrrolidin-1-yl)pyridin-4-yl]methyl}pyridine-3-carboxamide] | 2.87 µM | 0.106 µM
